Measurements: PMC9090415, “Discovery of small molecule inhibitors of Plasmodium falciparum apicoplast DNA polymerase” (Journal of Enzyme Inhibition and Medicinal Chemistry, 2022)

Target: P. falciparum apicoplast DNA polymerase (Pf-apPOL) (Plasmodium falciparum, UniProt Q8ILY1)
Assay: Fluorescence-based high-throughput DNA polymerase assay (molecular beacon), primary screen and dose-response;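 as to % inhibition ApPOL 90': test concentration in µM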;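 as to % inhibition apPOL 180': test concentration in µM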
Assay type: biochemical
Details: for DNA Pol: unit not given, 90 min, 10 µM; for IC50: supplemental file 2, sheet IC50 nontoxic compounds, Pf-apPOL
Method in brief: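 Single-point screening used 10 µM compound with 20 nM polymerase, 20 nM hairpin substrate and 6 µM dNTPs for 90 min at 25 °C. Confirmatory titrations (2.5–80 µM) followed fluorescence at three times, and IC50 was derived from a fit including a cooperativity term n.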

P. falciparum apicoplast DNA polymerase (Pf-apPOL), sequence (Q8ILY1 entry or part of it): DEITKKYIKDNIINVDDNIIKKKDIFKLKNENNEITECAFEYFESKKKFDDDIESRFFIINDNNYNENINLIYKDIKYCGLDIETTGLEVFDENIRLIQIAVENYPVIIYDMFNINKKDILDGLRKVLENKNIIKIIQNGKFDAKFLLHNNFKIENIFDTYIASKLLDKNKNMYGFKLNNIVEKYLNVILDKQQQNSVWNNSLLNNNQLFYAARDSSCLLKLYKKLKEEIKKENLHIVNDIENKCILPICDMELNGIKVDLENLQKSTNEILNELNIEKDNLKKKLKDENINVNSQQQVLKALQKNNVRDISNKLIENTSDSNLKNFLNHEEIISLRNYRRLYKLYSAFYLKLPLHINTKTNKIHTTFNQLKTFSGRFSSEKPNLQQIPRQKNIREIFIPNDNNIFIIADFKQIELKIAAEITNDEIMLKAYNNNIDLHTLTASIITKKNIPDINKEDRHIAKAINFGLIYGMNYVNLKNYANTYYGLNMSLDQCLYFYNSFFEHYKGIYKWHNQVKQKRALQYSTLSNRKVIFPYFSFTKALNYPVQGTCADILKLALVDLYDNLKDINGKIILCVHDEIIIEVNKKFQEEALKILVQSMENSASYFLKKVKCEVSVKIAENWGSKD

SMILES: NS(=O)(=O)c1ccc(NC(=O)c2ccc(N3C(=O)CCC3=O)cc2)cc1 [KU0025331]
- % inhibition Apo pol 10' (DRC-1, concentration 2.5): 3.929%
- % inhibition Apo pol 10' (DRC-1, concentration 5): 17.6449%
- % inhibition Apo pol 10' (DRC-1, concentration 10): 35.7836%
- % inhibition Apo pol 10' (DRC-1, concentration 20): 51.7902%
- % inhibition Apo pol 10' (DRC-1, concentration 40): 82.955%
- % inhibition Apo pol 10' (DRC-1, concentration 80): 86.1018%
- % inhibition Apol 90' (DRC-1, 90', concentration 2.5): -2.372%
- % inhibition Apol 90' (DRC-1, 90', concentration 5): 7.062%
- % inhibition Apol 90' (DRC-1, 90', concentration 10): 19.6888%
- % inhibition Apol 90' (DRC-1, 90', concentration 20): 33.4355%
- % inhibition Apol 90' (DRC-1, 90', concentration 40): 69.7509%
- % inhibition Apol 90' (DRC-1, 90', concentration 80): 83.6402%
- % inhibition apPOL 180' (DRC-1, concentration 2.5): -7.42%
- % inhibition apPOL 180' (DRC-1, concentration 5): -1.0806%
- % inhibition apPOL 180' (DRC-1, concentration 10): 6.657%
- % inhibition apPOL 180' (DRC-1, concentration 20): 15.4098%
- % inhibition apPOL 180' (DRC-1, concentration 40): 52.8887%
- % inhibition apPOL 180' (DRC-1, concentration 80): 79.9389%
- % inhibition Apo pol 5' (DRC-2, 5', concentration 2.5 (unit not given)): 8%
- % inhibition Apol 40' (DRC-2, 40', concentration 2.5 (unit not given)): 8%
- % inhibition Apol 40' (DRC-2, 40', concentration 40 (unit not given)): 67%
- % inhibition ApPOL 90' (DRC-2, 90', concentration 80 (unit not given)): 67%
- % inhibition Apo pol 5' (DRC-2, 5', concentration 2.5): 8%
- % inhibition Apo pol 5' (DRC-2, 5', concentration 5): 15%
- % inhibition Apo pol 5' (DRC-2, 5', concentration 10): 23%
- % inhibition Apo pol 5' (DRC-2, 5', concentration 20): 40%
- % inhibition Apo pol 5' (DRC-2, 5', concentration 40): 46%
- % inhibition Apo pol 5' (DRC-2, 5', concentration 80): 37%
- % inhibition Apol 40' (DRC-2, 40', concentration 2.5): 8%
- % inhibition Apol 40' (DRC-2, 40', concentration 5): 13%
- % inhibition Apol 40' (DRC-2, 40', concentration 10): 21%
- % inhibition Apol 40' (DRC-2, 40', concentration 20): 47%
- % inhibition Apol 40' (DRC-2, 40', concentration 40): 67%
- % inhibition Apol 40' (DRC-2, 40', concentration 80): 64%
- % inhibition ApPOL 90' (DRC-2, 90', concentration 2.5): 5.53%
- % inhibition ApPOL 90' (DRC-2, 90', concentration 5): 9%
- % inhibition ApPOL 90' (DRC-2, 90', concentration 10): 17%
- % inhibition ApPOL 90' (DRC-2, 90', concentration 20): 42%
- % inhibition ApPOL 90' (DRC-2, 90', concentration 40): 68%
- % inhibition ApPOL 90' (DRC-2, 90', concentration 80): 67%
- % inhibition apPOL 180' (DRC-2, concentration 2.5): -4.26%
- % inhibition apPOL 180' (DRC-2, concentration 5): -1.74%
- % inhibition apPOL 180' (DRC-2, concentration 10): 4.49%
- % inhibition apPOL 180' (DRC-2, concentration 20): 26%
- % inhibition apPOL 180' (DRC-2, concentration 40): 65%
- % inhibition apPOL 180' (DRC-2, concentration 80): 72%
- DNA Pol (primary screen value of the 186 hits): 32
- DNA Pol (primary screen value, head "DNA Pol"): 32

SMILES: Cc1ccc(NC(=O)Cn2ccc3c(=O)[nH]ccc32)cc1 [Molecule 50]
- IC50: 13.7 µM

SMILES: O=C(CSc1nnc(-c2ccncc2)[nH]1)c1ccc(O)c(O)c1 [Molecule 89]
- IC50: < 2.5 µM

SMILES: COc1ccc(NC(=O)Cn2ccc3c(=O)[nH]ccc32)cc1 [Molecule 13]
- IC50: 7.09 µM
